Laboratory results published in patent publication US8133471B2, “CLK-peptide and SLK-peptide” (New York University, priority 2003, dated 2012).

Assays:
[1] = test system: GL261 glioblastoma tumors; assay: GL261 tumors grown on chick CAMs, CLK-peptide combined with ionizing radiation; type: in vivo; settings: CLK-peptide 50 μg/embryo + 5.0 Gy; 7-day incubation
Protocol: FIG. 25 Effects of CLK-Peptide on Anti-Tumor Activity of Ionizing Radiation In Vivo. Glioblastoma tumors grown on CAMs were treated with either CLK-Peptide, ionizing radiation, both, or left untreated as a control. Their relative sizes after incubation are shown. FIG. 26 Quantitation of the Effects of CLK-Peptide on Anti-tumor Activity of Ionizing Radiation in vivo. Glioblastoma tumors grown on CAMs were treated with either CLK-Peptide, ionizing radiation, both, or left untreated as a control. Their relative wet weights following treatment are graphed. The effects of CLK-peptide in combination with ionizing radiation on tumor growth in vivo were assessed. GL261 glioblastoma cells were seeded on the CAMs of 10-day old chick embryos. Twenty-four hours later, the embryos were injected systemically with CLK-peptide (50 μg/embryo). Twenty-four hours after CLK-peptide treatment the embryos were either untreated or irradiated with a single fraction dose of ionizing radiation (5.0 Gy). Photographs showing the relative sizes of […] given each treatment individually, the combination treatment, and not treated, are shown in FIG. 25. At the end of the 7-day incubation period the tumors (N=6 to 8 per condition) were removed and wet weights determined.

[2] = test system: denatured collagen type-IV; assay: Competition ELISA, mAb HUIV26 or HUI77 binding to denatured collagen with or without CLK-peptide (Example 16); settings: collagen coated at 10 μg/ml; 1:1 ratio
Protocol: FIG. 17 CLK-Peptide Binds to the HUI77 Cryptic Collagen Epitope. To examine the epitope bound by CLK, competition ELISAs were carried out. Microtiter wells were coated with denatured collagen type-IV (10 μg/ml), and mAb HUIV26 or HUI77 were allowed to bind the denatured collagen in the presence or absence of CLK-peptide.
ELISAs were performed to examine the binding specificity of CLK-Peptide. Denatured type-IV collagen (10 μg/ml) was coated on microtiter wells and CLK-peptide allowed to bind in the presence or absence of Mab HUI77 or Mab HUIV26 at a 1:1 ratio. HRP-labeled goat anti-mouse secondary antibodies were used to detect murine Mabs HUI77 and HUIV26, directed to distinct cryptic epitope within collagen type-IV, and the O.D. at 490 nm measured.

P27KIP1 = P27KIP1 expression by Western blot in tumor cells on denatured collagen; type: cell-based, murine; settings: 24 hours
Protocol: FIG. 11 Inhibition of Cellular Interactions by CLK-Peptide Enhances Expression of P27KIP1. […] A. Treatment of B16F10 melanoma cells. B. Treatment of GL261 glioblastoma cells.
To determine whether the effect on inhibition of tumor proliferation and invasion in vivo differs in malignant tumors and normal tissue, the effect of CLK-peptide on gene expression was analyzed. Genes that regulate cell cycle control, including Cyclin Dependent Kinase (CDK) inhibitors known to regulate cellular proliferation, were studied. Tumor cells (B16F10 melanoma and GL261 glioblastoma) were resuspended in adhesion buffer in the presence or absence of CLK-peptide or control. Cells were added to culture plates coated with denatured collagen and allowed to incubate for 24 hours. Total cell lysates were prepared and the relative levels of the CDK inhibitor P27^KIP1 was examined by Western Blot analysis.

GL261 glioblastoma cells = assay: GL261 proliferation, CLK-peptide combined with ionizing radiation; type: cell-based, murine; settings: CLK-peptide 50 μg/ml + 5.0 Gy, 3 days, P<0.050, versus control
Protocol: FIG. 24 CLK-Peptide Enhances Radiosensitivity of […] Glioblastoma. Percent inhibition of tumor cell proliferation was quantitated in the presence or absence of CLK-Peptide, ionizing radiation, and a combination of the two.
Microtiter wells were coated with denatured collagen type-IV (10 μg/ml). GL261 cells were resuspended in proliferation buffer containing 1% serum in the presence or absence of a sub-optimal amount of CLK-peptide or control peptide (CTW) (50 μg/ml).
The cells were added to the coated wells and allowed to incubate for 1 hour, then either untreated or irradiated with a single fraction dose of ionizing radiation (5.0 Gy). A ^60Co source (Theratron) was used to deliver a single fraction of 5 Gy. The cells, on a 30 cm^2 field, were irradiated from a distance of 80 cm with a gantry angle of 180 degrees on a solid water phantom at 0.5 cm depth.
Tumor cells were allowed to proliferate for 3 days and proliferation was quantified by measuring the relative amount of mitochondrial dehydrogenase using a WST-1 tetrazolium salt cleavage assays kit (Chemicon).

[3] = test system: denatured collagen type-IV; assay: Solid phase ELISA, labeled CLK-peptide binding to denatured collagen type-IV
Protocol: FIG. 15 CLK-Peptide Reacts with a Cryptic Epitope in Collagen Type-IV In Vitro. Reactivity of biotin-labeled CLK-Peptide was assessed by solid phase ELISA. Reactivity was monitored by incubation with HRP-labeled streptavidin. […] All data was corrected for nonspecific binding of HRP-labeled streptavidin only. Data bars represent the mean optical density (O.D.)±standard deviation from triplicate wells. Assays were repeated 2 to 3 times with similar results.
The CLK-peptide was labeled with HRP and used in solid phase ELISA to assess differential binding to either native or denatured collagen type-IV. Microtiter plates were coated with either native or denatured collagen type-IV and HRP-labeled CLK-peptide was allowed to bind. […] In contrast, CLK-Peptide readily bound to denatured collagen type-IV. […] To determine whether this cryptic epitope was also exposed within the ECM in vivo, biotin-labeled CLK-peptide was used to stain M21 human melanoma tumors growing in nude mice (results shown in FIGS. 16A and B and described in Example 15).

[4] = test system: Human melanoma (M21) cells; assay: M21 cell adhesion, CLK-peptide combined with mAb HUIV26 (Example 10); type: cell-based; settings: data not shown
Protocol: FIG. 10 Effect of mAb HUIV26 in Combination with CLK-Peptide on Adhesion of M21 Cells to Denatured Collagen Type IV. Microtiter wells were coated with denatured collagen type-IV. M21 cells were allowed to bind to the coated substrates in the presence of CLK-peptide, mAb HUIV26, or both.
The effects of CLK-peptide, mAb HUIV26, and the combination of both on tumor cell adhesion were examined in vitro. Non-tissue culture treated 48-well microtiter plates were coated overnight at 4° C. with either native or denatured collagen type-IV (5 μg/ml). The plates were then blocked with 1% BSA in PBS for 1 hour at 37° C. Human melanoma (M21) cells at 10^5 cells/well in adhesion buffer were allowed to attach to the coated wells in the presence of either CLK-peptide (100 μg/ml), or mAb HUIV26 (100 μg/ml), or both together (CLK-peptide 25 μg/ml, mAb HUIV26 100 μg/ml). The cells were washed 2× with PBS, stained with crystal violet and destained with 10% acetic acid. Cell adhesion was quantified by measuring the O.D. of eluted dye at 600 nm. Data bars represent the mean O.D.±standard deviation from triplicate wells.

blocking of mAb HUI77 binding to denatured collagen [2]: significantly blocked
blocking of mAb HUIV26 binding to denatured collagen [2]: did not block
binding to denatured collagen type-IV [3]: readily bound
Substance: H-CLKQNGGNFSLG-OH [CLK-peptide, NH2-C-L-K-Q-N-G-G-N-F-S-L-G-COOH]
inhibition of tumor growth (wet weights), combination therapy versus either treatment alone [1]: greater
P27KIP1 level (P27KIP1; B16F10 melanoma cells on denatured collagen): dramatic upregulation
P27KIP1 level (P27KIP1; GL261 glioblastoma cells on denatured collagen): dramatic upregulation
increase of the antiproliferative effects of a sub-optimal dose of ionizing radiation (GL261 glioblastoma cells): approximately 5 fold
effect on M21 cell adhesion to native collagen type-IV [4]: neither had any effect
